Results published in patent publication US20040018562A1, “Receptor detection” (priority 2002, published 2004).

Assays:
[1] = tested on: membrane protein from CHO-M1; assay: Binding of enzyme donor-GTP gamma-S conjugate to membrane protein (open/close readings); settings: 1 hr
Description: 20 ul of membrane protein (10 ug from CHO-M1) in a binding buffer (50 mM HEPES, 20 mM NaCl, 10 mM MgCl2, with 1 mM DTT or 0.01% CHAPS) was incubated with 10 ul of enzyme donor-GTP gamma-S conjugate at various concentrations for 60 minutes at ambient temperature. 10 ul of enzyme acceptor (0.18 uM) and 15 ul of the chemiluminescent reagent, Galacton Star with Emerald plus (Applied Biosystems, Foster city, Calif.) added and the microtiter plate read on the Lumicount (Packard, Meridien, Conn.). The readings are tabulated below with ED46 mer used as control. Open and Close refer to free and bound enzyme donor conjugate to enzyme acceptor. Percentage inhibition is calculated by (open-close)/open readings.

[2] = tested on: membrane protein from CHO-M1; assay: Modulation of enzyme donor-GTP gamma-S conjugate inhibition by GTP gamma-S; type: binding; settings: 1 hr; for % I: absence of GTP-gamma-S; for GTP-r-S (reading): membrane preincubated with GTP gamma-S
Description: In order to test if the inhibition was capable of being modulated. The experiments were performed by incubating the membrane preparation with GTPgamma-S (10 ul of 10 uM). Higher concentrations of enzyme donor together with another detergent saponin were tried to enhance signal and minimize non-specific binding.
10 ul of membrane protein (10 ug from CHO-M1) in a binding buffer (50 mM HEPES, 20 mM NaCl, 10 mM MgCl2, with 0.01% CHAPS or 0.01% saponin) was incubated with 10 ul of GTP gamma-S for 30 minutes at room temperature 10 ul of the enzyme donor conjugate at various concentrations was added and the mixture incubated for 60 minutes at ambient temperature. 10 ul of enzyme acceptor (0.45 uM) and 15 ul of the chemiluminescent reagent, Galacton Star with Emerald plus (Applied Biosystems, Foster city, Calif.) added and the microtiter plate read on the Lumicount (Packard, Meridien, Conn.). The readings are tabulated below with ED46 mer used as control. Open and close refer to free and bound enzyme donor conjugate to enzyme acceptor. Percentage inhibition is calculated by (open-close)/open readings and is in the absence of GTP-gamma-S.

[3] = Buffer with 0.01% CHAPS, 0.5 nM
[4] = Buffer with 0.01% Saponin, 0.5 nM
[5] = Buffer with 0.01% Saponin, 5 nM
[6] = Buffer with 0.01% Saponin, 10 nM
[7] = Buffer with 0.01% Saponin, 25 nM
[8] = Buffer with 0.01% Saponin, 50 nM

SLAVVLQRRDWENPGVTQLNKLAAHPPFASWRNSEEARTDCPSQQL [45+1 mer, 46 mer enzyme donor fragment]
% I ([1]; Binding buffer wCHAPS, 0.1 nM): 10.0%
close ([1]; Binding buffer wCHAPS, 0.1 nM): 1706
open ([1]; Binding buffer wCHAPS, 0.1 nM): 1895
% I ([1]; Binding buffer wCHAPS, 0.5 nM): 3.9%
close ([1]; Binding buffer wCHAPS, 0.5 nM): 1846
open ([1]; Binding buffer wCHAPS, 0.5 nM): 1921
% I ([1]; Binding buffer wCHAPS, 5 nM): 1.7%
close ([1]; Binding buffer wCHAPS, 5 nM): 3383
open ([1]; Binding buffer wCHAPS, 5 nM): 3442
% I ([1]; Binding buffer wCHAPS, 10 nM): 6.0%
close ([1]; Binding buffer wCHAPS, 10 nM): 5017
open ([1]; Binding buffer wCHAPS, 10 nM): 5339
% I ([1]; Binding buffer wDTT, 0.1 nM): 16.8%
close ([1]; Binding buffer wDTT, 0.1 nM): 1357
open ([1]; Binding buffer wDTT, 0.1 nM): 1632
% I ([1]; Binding buffer wDTT, 0.5 nM): 15.2%
close ([1]; Binding buffer wDTT, 0.5 nM): 1338
open ([1]; Binding buffer wDTT, 0.5 nM): 1579
% I ([1]; Binding buffer wDTT, 5 nM): 6.8%
close ([1]; Binding buffer wDTT, 5 nM): 2372
open ([1]; Binding buffer wDTT, 5 nM): 2544
% I ([1]; Binding buffer wDTT, 10 nM): 12.6%
close ([1]; Binding buffer wDTT, 10 nM): 3502
open ([1]; Binding buffer wDTT, 10 nM): 4006
% I ([1]; Binding buffer, 0.1 nM): 5.8%
close ([1]; Binding buffer, 0.1 nM): 1773
open ([1]; Binding buffer, 0.1 nM): 1882
% I ([1]; Binding buffer, 0.5 nM): −2.3%
close ([1]; Binding buffer, 0.5 nM): 1940
open ([1]; Binding buffer, 0.5 nM): 1896
% I ([1]; Binding buffer, 5 nM): −1.1%
close ([1]; Binding buffer, 5 nM): 2952
open ([1]; Binding buffer, 5 nM): 2921
% I ([1]; Binding buffer, 10 nM): 6.7%
close ([1]; Binding buffer, 10 nM): 4176
open ([1]; Binding buffer, 10 nM): 4474
% M [2, 3]: −1.6%
close [2, 3]: 353
open [2, 3]: 322
% I [2, 3]: −9.7%
GTP-r-S (reading) [2, 3]: 348
% M ([2]; Buffer with 0.01% CHAPS, 5 nM): 10.2%
close ([2]; Buffer with 0.01% CHAPS, 5 nM): 1318
open ([2]; Buffer with 0.01% CHAPS, 5 nM): 1214
% I ([2]; Buffer with 0.01% CHAPS, 5 nM): −8.6%
GTP-r-S (reading) ([2]; Buffer with 0.01% CHAPS, 5 nM): 1468
% M ([2]; Buffer with 0.01% CHAPS, 10 nM): 6.1%
close ([2]; Buffer with 0.01% CHAPS, 10 nM): 3265
open ([2]; Buffer with 0.01% CHAPS, 10 nM): 2971
% I ([2]; Buffer with 0.01% CHAPS, 10 nM): −9.9%
GTP-r-S (reading) ([2]; Buffer with 0.01% CHAPS, 10 nM): 3478
% M ([2]; Buffer with 0.01% CHAPS, 25 nM): −1.4%
close ([2]; Buffer with 0.01% CHAPS, 25 nM): 10782
open ([2]; Buffer with 0.01% CHAPS, 25 nM): 8526
% I ([2]; Buffer with 0.01% CHAPS, 25 nM): −26.5%
GTP-r-S (reading) ([2]; Buffer with 0.01% CHAPS, 25 nM): 10634
% M ([2]; Buffer with 0.01% CHAPS, 50 nM): 4.5%
close ([2]; Buffer with 0.01% CHAPS, 50 nM): 18587
open ([2]; Buffer with 0.01% CHAPS, 50 nM): 17367
% I ([2]; Buffer with 0.01% CHAPS, 50 nM): −7.0%
GTP-r-S (reading) ([2]; Buffer with 0.01% CHAPS, 50 nM): 19466
% M [2, 4]: 19.6%
close [2, 4]: 228
open [2, 4]: 215
% I [2, 4]: −6.4%
GTP-r-S (reading) [2, 4]: 284
% M [2, 5]: 20.2%
close [2, 5]: 827
open [2, 5]: 763
% I [2, 5]: −8.3%
GTP-r-S (reading) [2, 5]: 1035
% M [2, 6]: 11.6%
close [2, 6]: 2220
open [2, 6]: 2103
% I [2, 6]: −5.6%
GTP-r-S (reading) [2, 6]: 2510
% M [2, 7]: 10.5%
close [2, 7]: 6971
open [2, 7]: 6600
% I [2, 7]: −5.6%
GTP-r-S (reading) [2, 7]: 7790
% M [2, 8]: 8.9%
close [2, 8]: 13597
open [2, 8]: 13133
% I [2, 8]: −3.5%
GTP-r-S (reading) [2, 8]: 14932
